According to patent US9145402B2, “Aminopyrimidine derivatives as LRRK2 modulators” (Genentech, Inc., priority 2011, dated 2015):

Biological target: LRRK2 (Homo sapiens (Human), UniProt Q5S007, G2019S)
Test: In Vitro LRRK2 LabChip Assay (LRRK2 Ki)
Type: biochemical
Procedure: In Vitro LRRK2 LabChip Assay
This assay was used to determine a compound's potency in inhibiting activity of LRRK2 by determining, Kiapp, IC50, or percent inhibition values. In a polypropylene plate, LRRK2, fluorescently-labeled peptide substrate, ATP and test compound were incubated together. Using a LabChip 3000 (Caliper Life Sciences), after the reaction the substrate was separated by capillary electrophoresis into two populations: phosphorylated and unphosphorylated. The relative amounts of each were quantitated by fluorescence intensity. LRRK2 Ki was determined according to the equation: Y=V0*(1−((x+Ki*(1+S/Km)+Et)/(2*Et)−(((x+Ki*(1+S/Km)+Et)^2−(4*Et*x))^0.5)/(2*Et))). Ki values in Table 4 and elsewhere herein are shown in μM.
Assay conditions and materials used were as follows:
Kinase reaction time: 2 hours
Wild type in 5 mM MgCl2: 80 μM
Solid Support: Black 50 μL volume polypropylene 384 well plate (MatriCal cat #MP101-1-PP)
Non-binding plate: 384 well clear V-bottom polypropylene plates (Greiner cat #781280).
ATP: 10 mM ATP (Cell Signaling cat #9804).
Coating Reagent #3: Coating Reagent #3 (Caliper).
Complete Reaction Buffer: H2O/25 mM Tris, pH 8.0/5 mM MgCl2/2 mM DTT/0.01% Triton X-100.
Stop Solution: H2O/100 mM HEPES, pH 7.2/0.015% Brij-35/0.2% Coating Reagent #3/20 mM EDTA.
Separation Buffer: H2O/100 mM HEPES, pH 7.2/0.015% Brij-35/0.1% Coating Reagent #3/1:200 Coating Reagent #8/10 mM EDTA/5% DMSO.
Compound Plate Preparation:
For serial dilutions, 34.6 μl DMSO was added to columns 3-24. For the assay controls, 37.5 μl DMSO was added to columns 1 and 2 of rows A and P. a,d and 50 μl 25 μM G-028831 (Staurosporine) was added to columns 1 and 2, row B. For the samples: to start at 100 μM, 37.5 μl DMSO was to columns 1 and 2, then 12.5 μl 10 mM compound; to start at 10 μM, 78 μl DMSO was added to columns 1 & 2, then 2 μl 10 mM compound; and to start at 1 μM, 25 μM compound (2 μl 10 mM cmpd+798 μl DMSO) was added to empty columns 1 and 2. A Precision instrument was used to perform 1:3.16 serial dilutions (“PLK_BM_serial_halflog”).
ATP was diluted to 282.1 μM in Complete Kinase Buffer (final concentration was 130 μM).
Total and Blank Preparation:
In Complete Reaction Buffer, substrate was diluted to 4 μM. Equal volumes of Complete Reaction Buffer and 4 μM substrate were combined to obtain the blank. Equal volumes of Complete Reaction Buffer and 4 μM substrate were combined and to the combined solution was added 2× final LRRK2 concentration.
To a 50 μl polypropylene plate, 5 μl/well buffer/substrate was added by hand to Blank wells. A Biomek FX was used to start the kinase reaction (“PLK SAR 23 ATP”). The following were added to the appropriate wells:
5 μl/well compound/ATP in Assay Plate;
5 μl/well kinase/substrate in Assay Plate;
The plate was incubated for 2 hours in the dark. Biomek FX was used to stop the kinase reaction (“PLK Stop”), and 10 μl/well Stop solution was added to the Assay Plate. Results were read on the LabChip 3000.
The LabChip 3000 was run using the job “LRRK2 IC50” with the following job settings:
Downstream voltage: −500 V
Upstream voltage: −2350 V
Post sample buffer sip time: 75 seconds
Post dye buffer sip time: 75 seconds
Final delay time: 200 seconds

LRRK2, sequence (Q5S007 970-2527 G2019S): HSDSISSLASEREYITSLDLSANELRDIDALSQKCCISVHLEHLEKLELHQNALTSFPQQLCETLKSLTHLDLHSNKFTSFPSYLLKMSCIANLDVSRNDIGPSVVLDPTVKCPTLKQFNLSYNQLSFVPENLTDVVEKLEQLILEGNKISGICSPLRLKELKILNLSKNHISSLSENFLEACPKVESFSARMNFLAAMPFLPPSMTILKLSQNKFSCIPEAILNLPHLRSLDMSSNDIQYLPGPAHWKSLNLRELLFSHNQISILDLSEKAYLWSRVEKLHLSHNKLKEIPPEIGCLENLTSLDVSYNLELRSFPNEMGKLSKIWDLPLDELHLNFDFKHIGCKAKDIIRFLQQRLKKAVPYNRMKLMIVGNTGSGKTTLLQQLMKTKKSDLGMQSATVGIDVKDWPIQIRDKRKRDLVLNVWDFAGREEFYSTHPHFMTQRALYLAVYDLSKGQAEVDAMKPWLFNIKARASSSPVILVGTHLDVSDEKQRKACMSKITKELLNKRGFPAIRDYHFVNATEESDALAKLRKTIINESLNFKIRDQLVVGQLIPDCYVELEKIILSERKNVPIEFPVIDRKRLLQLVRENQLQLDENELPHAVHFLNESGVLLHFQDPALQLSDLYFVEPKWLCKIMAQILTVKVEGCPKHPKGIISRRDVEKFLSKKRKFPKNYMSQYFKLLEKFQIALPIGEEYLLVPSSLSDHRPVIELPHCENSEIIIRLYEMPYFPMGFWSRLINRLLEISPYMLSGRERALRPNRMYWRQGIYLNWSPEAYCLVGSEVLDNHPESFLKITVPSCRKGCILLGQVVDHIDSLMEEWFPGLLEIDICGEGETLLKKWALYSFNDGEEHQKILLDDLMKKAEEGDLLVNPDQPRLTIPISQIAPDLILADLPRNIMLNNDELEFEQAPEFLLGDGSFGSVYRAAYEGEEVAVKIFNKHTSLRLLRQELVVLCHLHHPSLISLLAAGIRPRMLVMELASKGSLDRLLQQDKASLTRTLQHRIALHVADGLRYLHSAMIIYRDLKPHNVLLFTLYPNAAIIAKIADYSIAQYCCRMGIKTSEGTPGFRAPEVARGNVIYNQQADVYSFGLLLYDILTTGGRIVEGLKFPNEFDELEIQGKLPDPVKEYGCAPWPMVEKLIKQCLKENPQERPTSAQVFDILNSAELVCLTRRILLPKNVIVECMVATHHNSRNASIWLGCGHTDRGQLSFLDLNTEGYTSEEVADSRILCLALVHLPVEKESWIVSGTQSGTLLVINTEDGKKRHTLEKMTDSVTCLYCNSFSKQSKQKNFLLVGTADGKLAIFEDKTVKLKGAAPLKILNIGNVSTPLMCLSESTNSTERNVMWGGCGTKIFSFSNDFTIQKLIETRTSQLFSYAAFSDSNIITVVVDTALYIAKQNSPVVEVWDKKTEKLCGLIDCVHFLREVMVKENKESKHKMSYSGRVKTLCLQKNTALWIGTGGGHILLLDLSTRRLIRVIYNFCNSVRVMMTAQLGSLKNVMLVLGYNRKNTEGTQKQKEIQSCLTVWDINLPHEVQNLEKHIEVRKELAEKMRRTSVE

Row | Ki [nM] | Structure (SMILES)
1 | 2 | CNc1nc(Nc2ccc(S(C)(=O)=O)cc2OC)ncc1C(F)(F)F [Example 1, N2-(2-Methoxy-4-(methylsulfonyl)phenyl)-N4-methyl-5-(trifluoromethyl)pyrimidine-2,4-diamine]
2 | 2 | CNc1nc(Nc2ccc(S(C)(=O)=O)cc2OC)ncc1Cl [Example 2, 5-Chloro-N2-(2-methoxy-4-(methylsulfonyl)phenyl)-N4-methylpyrimidine-2,4-diamine]
3 | 22 | CNc1nc(Nc2cc(F)c(C#N)cc2OC)ncc1C(F)(F)F [Example 3, 2-Fluoro-5-methoxy-4-(4-(methylamino)-5-(trifluoromethyl)pyrimidin-2-ylamino)benzonitrile]
4 | 8 | CNc1nc(Nc2ccc(C#N)cc2OC)ncc1C(F)(F)F [Example 4, 3-Methoxy-4-(4-(methylamino)-5-(trifluoromethyl)pyrimidin-2-ylamino)benzonitrile]
5 | 8 | CNc1nc(Nc2ccc(C#N)cc2OC)ncc1Cl [Example 5, 4-(5-Chloro-4-(methylamino)pyrimidin-2-ylamino)-3-methoxybenzonitrile]
6 | 61 | COc1nc(Nc2ccc(S(C)(=O)=O)cc2Cl)ncc1Cl [Example 6, (2-Chloro-4-methanesulfonyl-phenyl)-(5-chloro-4-methoxy-pyrimidin-2-yl)-amine]
7 | 8 | CNc1nc(Nc2ccc(S(C)(=O)=O)cc2Cl)ncc1C(F)(F)F [Example 7, N2-(2-Chloro-4-methanesulfonyl-phenyl)-N4-methyl-5-trifluoromethyl-pyrimidine-2,4-diamine]
8 | 8 | CNc1nc(Nc2ccc(S(C)(=O)=O)cc2Cl)ncc1Cl [Example 8, 5-Chloro-N2-(2-chloro-4-methanesulfonyl-phenyl)-N4-methyl-pyrimidine-2,4-diamine]
9 | 3 | CNc1nc(Nc2ccc(CN3CCOCC3)cc2OC)ncc1C(F)(F)F [Example 9, N2-(2-Methoxy-4-morpholin-4-ylmethyl-phenyl)-N4-methyl-5-trifluoromethyl-pyrimidine-2,4-diamine]
10 | 46 | CNc1nc(Nc2cc(C)c(C#N)cc2Cl)ncc1C(F)(F)F [Example 10, 5-Chloro-2-methyl-4-(4-methylamino-5-trifluoromethyl-pyrimidin-2-ylamino)-benzonitrile]
11 | 27 | CNc1nc(Nc2cc(F)c(CN3CCOCC3)cc2OC)ncc1C#N [Example 11, 2-(5-Fluoro-2-methoxy-4-morpholin-4-ylmethyl-phenylamino)-4-methylamino-pyrimidine-5-carbonitrile]
12 | 14 | CCNc1nc(Nc2cc(F)c(CN3CCOCC3)cc2OC)ncc1C#N [Example 12, 4-Ethylamino-2-(5-fluoro-2-methoxy-4-morpholin-4-ylmethyl-phenylamino)-pyrimidine-5-carbonitrile]
13 | 12 | CNc1nc(Nc2cc(C)c(C#N)cc2OC)ncc1C(F)(F)F [Example 13, 5-Methoxy-2-methyl-4-(4-methylamino-5-trifluoromethyl-pyrimidin-2-ylamino)-benzonitrile]
14 | 3 | CNc1nc(Nc2cc(F)c(S(C)(=O)=O)cc2OC)ncc1C(F)(F)F [Example 15, N2-(5-Fluoro-4-methanesulfonyl-2-methoxy-phenyl)-N4-methyl-5-trifluoromethyl-pyrimidine-2,4-diamine]
15 | 17 | CNc1nc(Nc2ccc(S(C)(=O)=O)cc2OC(C)C)ncc1C(F)(F)F [Example 16, N2-(2-Isopropoxy-4-methanesulfonyl-phenyl)-N4-methyl-5-trifluoromethyl-pyrimidine-2,4-diamine]
16 | 12 | CNc1nc(Nc2ccc(S(C)(=O)=O)cc2OCCF)ncc1Cl [Example 17, 5-Chloro-N2-[2-(2-fluoro-ethoxy)-4-methanesulfonyl-phenyl]-N4-methyl-pyrimidine-2,4-diamine]
17 | 12 | COc1nc(Nc2ccc(S(C)(=O)=O)cc2OCCF)ncc1Cl [Example 18, (5-Chloro-4-methoxy-pyrimidin-2-yl)-[2-(2-fluoro-ethoxy)-4-methanesulfonyl-phenyl]-amine]
